Data taken from patent US8673910B2, “Proteasome inhibitors for selectively inducing apoptosis in cancer cells” (H. Lee Moffitt Cancer Center and Research Institute, priority 2008, dated 2014).
Read-outs that look alike come from different tables or passages of the source.

Legend:
[1] = target: T1, chymotrypsin-like (CT-L) activity of purified 20S rabbit proteasome (Oryctolagus cuniculus, UniProt G1T4Q9); test: Proteolytic activity of purified 20S proteasome, fluorogenic substrate Suc-Leu-Leu-Val-Tyr-AMC; assay type: biochemical; settings: for proteasome (chymotrypsin-like) inhibitory activity, in words / IC50: purified rabbit 20S proteasome; for decrease of proteasome inhibition activity relative to comparator compound: 14u, 14v vs linear acetic acid analogues, 14q vs lead compound 10a
T1 sequence (G1T4Q9 1-263): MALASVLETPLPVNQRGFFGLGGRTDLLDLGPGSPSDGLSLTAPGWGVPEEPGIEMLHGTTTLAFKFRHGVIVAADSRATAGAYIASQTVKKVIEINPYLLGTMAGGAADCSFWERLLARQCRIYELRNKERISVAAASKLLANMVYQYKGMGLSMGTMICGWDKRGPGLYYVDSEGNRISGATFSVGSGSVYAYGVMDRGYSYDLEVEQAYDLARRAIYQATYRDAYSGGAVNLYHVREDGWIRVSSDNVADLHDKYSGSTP

[2] = target: T2, CT-L activity of the proteasome in MCF-7 human breast cancer cells (Homo sapiens, UniProt P20618+P28074); test: Proteolytic activity in cell lysates of treated intact MCF-7 cells; assay type: cell-based; settings: intact cells treated 16 h, CT-L measured in cell lysates; two determinations where two values
T2 construct: endogenous in cells; host or cells: MCF-7
Method: Human MCF-7 breast cancer cells were cultured in DMEM medium containing 10% fetal calf serum (FCS) and 100 units/ml of penicillin and 100 μg/ml of streptomycin. Cells were maintained at 37° C. in a humidified incubator in an atmosphere of 5% CO2. Cells were treated with different concentrations of PI-083, YG1-080, YG1-075, HL2-090-2, HL2-090-4, HL2-090-6, and HL2-090-9 or vehicle control (DMSO) for 16 h.
Intact cells were treated with compounds and lysates prepared as described above. Cell lysates (5 μg) was incubated with 20 μM Suc-Leu-Leu-Val-Tyr-AMC for the CT-L activity for 1 h at 37° C. in 100 μl of assay buffer (50 mM Tris-HCl, pH 7.6). After incubation, production of hydrolyzed 7-amido-4-methyl-coumarin (AMC) groups was measured using a WALLAC Victor^2 1420 Multilabel Counter with an excitation filter of 355 nm and an emission filter of 460 nm (Perkin Elmer Life Sciences, Turku, Finland).

[3] = tested on: MCF-7 breast cancer cells; test: MTT metabolism assay; assay type: cell-based, human; settings: MCF-7, 72 h (Table 6), read-out: IC50 for cell viability measured by MTT assay in MCF-7 human breast cancer cells
Method: Cells were plated in 96-well plates in 100 μl medium and allowed to attach overnight. […] Media was aspirated after 24 or 72 hours and replaced with 100 μl complete media containing 1 mg/ml MTT and incubated for three hours at 37° C. in 5% CO2 humidified incubator. Media was then aspirated and DMSO was added. Cells were incubated for 10 min at room temperature while shaking, and the absorbance was determined at 540 nm using a μQuant spectrophotometric plate reader (Bio-TEK, Winooski, Vt.).
Cells were plated in 96-well plates in 100 μl medium and allowed to attach overnight. Cells were then incubated for 72 h with varying concentrations of PI-083, YG1-080, YG1-075, HL2-090-2, HL2-090-4, HL2-090-6, and HL2-090-9 or vehicle control (DMSO). Media was aspirated and replaced with 100 μl complete media containing 1 mg/ml MTT and incubated for three hours at 37° C. in 5% CO2 humidified incubator. Media was then aspirated and DMSO was added. Cells were incubated for 10 min at room temperature while shaking, and the absorbance was determined at 540 nm using a μQuant spectrophotometric plate reader (Bio-TEK, Winooski, Vt.).

[4] = hydronaphthoquinone sulfonamides (Table 9), read-out: IC50 (μM), inhibition of chymotrypsin-like activity
[5] = PI-083 derivatives (Table 7, naphthoquinone library), read-out: IC50 (μM) Chymotrypsin-like activity

Row | proteasome (chymotrypsin-like) inhibitory activity, in words [1] | IC50 [1, 4] | Compound | further results
1 | the inhibitory activity totally lost | – | CCSc1cc(NS(=O)(=O)c2cccs2)c2ccccc2c1O [Compound 14j, N-(3-(ethylthio)-4-hydroxynaphthalen-1-yl)thiophene-2-sulfonamide] | –
2 | – | 4.83 ± 0.79 µM | O=C(O)CSc1cc(NS(=O)(=O)c2ccc3ccccc3c2)c2ccccc2c1O [Compound 14q, 2-(1-hydroxy-4-(naphthalene-2-sulfonamido)naphthalen-2-ylthio)acetic acid] | decrease of proteasome inhibition activity relative to comparator compound [1]: 3 fold
3 | diminished the inhibitory activity | – | O=C(O)CS(=O)(=O)c1cc(NS(=O)(=O)c2cccs2)c2ccccc2c1O [Compound 10f, 2-(1-hydroxy-4-(thiophene-2-sulfonamido)naphthalen-2-ylsulfonyl)acetic acid] | –
4 | – | > 10 µM | O=C(O)CCSc1cc(NS(=O)(=O)c2cccs2)c2ccccc2c1O [Compound 10b, 3-(1-hydroxy-4-(thiophene-2-sulfonamido)naphthalen-2-ylthio)propanoic acid] | –
5 | – | 2.07 ± 0.55 µM | O=C(O)CSc1cc(NS(=O)(=O)c2cc(Cl)c(Cl)s2)c2ccccc2c1O [Compound 14n, 2-(4-(4,5-dichlorothiophene-2-sulfonamido)-1-hydroxynaphthalen-2-ylthio)acetic acid] | –
6 | – | 8.57 ± 0.67 µM | CC(Sc1cc(NS(=O)(=O)c2ccc(Cl)cc2)c2ccccc2c1O)C(=O)O (stereo not shown) [Compound 14u, 2-(4-(4-chlorophenylsulfonamido)-1-hydroxynaphthalen-2-ylthio)propanoic acid] | decrease of proteasome inhibition activity relative to comparator compound [1]: ~2 fold
7 | – | 9.11 ± 0.47 µM | CC(Sc1cc(NS(=O)(=O)c2ccc3ccccc3c2)c2ccccc2c1O)C(=O)O (stereo not shown) [Compound 14v, 2-(1-hydroxy-4-(naphthalene-2-sulfonamido)naphthalen-2-ylthio)propanoic acid] | decrease of proteasome inhibition activity relative to comparator compound [1]: ~2 fold
8 | diminished the inhibitory activity | – | O=C(O)COc1cc(NS(=O)(=O)c2cccs2)c2ccccc2c1O [Compound 10d, 2-(1-hydroxy-4-(thiophene-2-sulfonamido)naphthalen-2-yloxy)acetic acid] | –
9 | – | 1.18 ± 0.3 µM | COC(=O)CCSc1cc(NS(=O)(=O)c2cc(Cl)c(Cl)s2)c2ccccc2c1O [Compound 14m, Methyl-3-(4-(4,5-dichlorothiophene-2-sulfonamido)-1-hydroxynaphthalen-2-ylthio)propanoate] | –
10 | the inhibitory activity totally lost | – | O=S(=O)(Nc1cc(SCCO)c(O)c2ccccc12)c1cccs1 [Compound 14k, N-(4-hydroxy-3-(2-hydroxyethylthio)naphthalen-1-yl)thiophene-2-sulfonamide] | –
11 | – | 2.19 ± 0.23 µM | O=C(O)c1ccccc1Sc1cc(NS(=O)(=O)c2ccc(-c3ccccc3)cc2)c2ccccc2c1O [Compound 14t, 2-(4-(biphenyl-4-ylsulfonamido)-1-hydroxynaphthalen-2-ylthio)benzoic acid] | –
12 | – | 3.75 ± 0.3 µM | O=C(O)CSc1cc(NS(=O)(=O)c2ccc(Cl)cc2)c2ccccc2c1O [Compound 14p, 2-(4-(4-chlorophenylsulfonamido)-1-hydroxynaphthalen-2-ylthio)acetic acid] | –

Second part, the compound before the results:

Row | Compound | proteasome (chymotrypsin-like) inhibitory activity, in words [1] | IC50 [1, 4] | further results
13 | COC(=O)CCSc1cc(NS(=O)(=O)c2cccs2)c2ccccc2c1O [Compound 9b, Methyl 3-(1-hydroxy-4-(thiophene-2-sulfonamido)naphthalen-2-ylthio)propanoate] | – | 4.99 ± 2.08 µM | –
14 | O=C1C(Cl)=C(Nc2ccc(S(=O)(=O)Nc3cnn(-c4ccccc4)c3)cc2)C(=O)c2ccccc21 [Compound 2b, 4-(3-chloro-1,4-dioxo-1,4-dihydronaphthalen-2-ylamino)-N-(1-phenyl-1H-pyrazol-4-yl)benzenesulfonamide] | – | – | melting point: 230 to 231 °C; IC50 [2]: > 10 µM; IC50 [1, 5]: 7.4 µM
15 | Cn1nnnc1Sc1cc(NS(=O)(=O)c2cccs2)c2ccccc2c1O [Compound 14d, N-(4-hydroxy-3-(1-methyl-1H-tetrazol-5-ylthio)naphthalen-1-yl)thiophene-2-sulfonamide] | comparable inhibition potency against proteasome to the lead compound | 4.25 ± 2.13 µM | –
16 | CCOC(=O)CSc1cc(NS(=O)(=O)c2ccccc2)c2ccccc2c1O [Compound 9c, Ethyl 2-(1-hydroxy-4-(phenylsulfonamido)naphthalen-2-ylthio)acetate] | – | 5.27 ± 2.23 µM | –
17 | O=C1C(Cl)=C(Nc2ccc(S(=O)(=O)Nc3nccs3)cc2)C(=O)c2ccccc21 [Compound 2s, 4-(3-chloro-1,4-dioxo-1,4-dihydronaphthalen-2-ylamino)-N-(thiazol-2-yl)benzene-sulfonamide] | – | – | melting point: 286 to 288 °C; IC50 [2]: > 10 µM; IC50 [1, 5]: 3.3 µM
18 | Cc1cc(NS(=O)(=O)c2ccc(NC3=C(Cl)C(=O)c4ccccc4C3=O)cc2)no1 [Compound 2d, 4-(3-chloro-1,4-dioxo-1,4-dihydronaphthalen-2-ylamino)-N-(5-methylisoxazol-3-yl)benzenesulfonamide] | – | – | melting point: 215 to 217 °C; IC50 [2]: > 10 µM; IC50 [1, 5]: 5.9 µM
19 | O=S(=O)(Nc1ccc(O)c2ccccc12)c1cccs1 [Compound 3, N-(4-hydroxynaphthalen-1-yl)thiophene-2-sulfonamide] | loss of the inhibitory activity | – | –
20 | O=C(O)CSc1cc(NS(=O)(=O)c2cccs2)c2ccccc2c1O [Compound 10a, 2-(1-hydroxy-4-(thiophene-2-sulfonamido)naphthalen-2-ylthio)acetic acid] | comparable proteasome inhibition activity to the commercial sample HLM-008182 | 1.3 ± 0.76 µM | IC50 ([1]; hydronaphthoquinone sulfonamides (Table 9), listed as HLM-008182, read-out: IC50 (μM), inhibition of chymotrypsin-like activity): 0.65 ± 0.4 µM; IC50 ([3]; Homo sapiens, MCF7, 72 h): 7.67 ± 1.61 µM; IC50 [3]: 10.9 ± 2.77 µM
21 | Cc1noc(NS(=O)(=O)c2ccc(NC3=C(Cl)C(=O)c4ccccc4C3=O)cc2)c1C [Compound 2h, 4-(3-chloro-1,4-dioxo-1,4-dihydronaphthalen-2-ylamino)-N-(3,4-dimethylisoxazol-yl)-benzenesulfonamide] | – | – | melting point: 208 to 210 °C; IC50 [2]: > 10 µM; IC50 [1, 5]: 6.4 µM
22 | CCOC(=O)CSc1cc(NS(=O)(=O)c2cccs2)c2ccccc2c1O [Compound 9a, Ethyl 2-(1-hydroxy-4-(thiophene-2-sulfonamido)naphthalen-2-ylthio)acetate] | – | 7.33 ± 2.82 µM | –
23 | Cc1nnc(NS(=O)(=O)c2ccc(NC3=C(Cl)C(=O)c4ccccc4C3=O)cc2)s1 [Compound 2f, 4-(3-chloro-1,4-dioxo-1,4-dihydronaphthalen-2-ylamino)-N-(5-methyl-1,3,4-thiadiazol-2-yl)benzenesulfonamide] | – | – | melting point: 220 °C (dec.); IC50 [2]: > 10 µM; IC50 [1, 5]: 3.9 µM
24 | CCOC(=O)CSc1cc(NS(=O)(=O)c2ccc([N+](=O)[O-])cc2)c2ccccc2c1O [Compound 9e, Ethyl 2-(1-hydroxy-4-(4-nitrophenylsulfonamido)naphthalen-2-ylthio)acetate] | – | 3.57 ± 1.53 µM | –
25 | O=S(=O)(Nc1cc(Sc2ncn[nH]2)c(O)c2ccccc12)c1cccs1 [Compound 14e, N-(3-(1H-1,2,4-triazol-5-ylthio)-4-hydroxynaphthalen-1-yl)thiophene-2-sulfonamide] | comparable inhibition potency against proteasome to the lead compound | – | –
